Numbers after ± are expanded uncertainties.
Assay: wn = mass fraction of the nth substance listed
Details: Liquid; for mass density: Vibrating tube method

Q: For `CN(CCO)CCO` [N-methyldiethanolamine] + O, which mass density (333.15 K, 60000 kPa, w1 = 0.4) is on record?
A: 1035 ± 0.7 kg/m3

Q: What about the mass density (333.15 K, 70000 kPa, w1 = 0.1) of the same molecule?
A: 1017.9 ± 0.7 kg/m3

Q: What about the mass density (333.15 K, 70000 kPa, w1 = 0.2002) of the same molecule?
A: 1024.4 ± 0.7 kg/m3

Q: What about the mass density (333.15 K, 70000 kPa, w1 = 0.3) of the same molecule?
A: 1031.5 ± 0.7 kg/m3

Q: What about the mass density (333.15 K, 70000 kPa, w1 = 0.4) of the same molecule?
A: 1038.4 ± 0.7 kg/m3

Q: And the viscosity (333.15 K, 80000 kPa, Falling or rolling sphere viscometry, w1 = 0.1)?
A: 0.661 ± 0.02 mPa·s

Q: What about the viscosity (333.15 K, 80000 kPa, Falling or rolling sphere viscometry, w1 = 0.2002) of the same molecule?
A: 0.942 ± 0.029 mPa·s

Q: And the viscosity (333.15 K, 80000 kPa, Falling or rolling sphere viscometry, w1 = 0.3)?
A: 1.4 ± 0.043 mPa·s

Q: And the viscosity (333.15 K, 80000 kPa, Falling or rolling sphere viscometry, w1 = 0.4)?
A: 2.134 ± 0.066 mPa·s

Q: And the mass density (333.15 K, 80000 kPa, w1 = 0.1)?
A: 1021.6 ± 0.7 kg/m3

Q: What about the mass density (333.15 K, 80000 kPa, w1 = 0.2002) of the same molecule?
A: 1027.9 ± 0.7 kg/m3

Q: What about the mass density (333.15 K, 80000 kPa, w1 = 0.3) of the same molecule?
A: 1034.9 ± 0.7 kg/m3

Q: What about the mass density (333.15 K, 80000 kPa, w1 = 0.4) of the same molecule?
A: 1041.6 ± 0.7 kg/m3

Q: What about the mass density (333.15 K, 90000 kPa, w1 = 0.1) of the same molecule?
A: 1025.1 ± 0.7 kg/m3

Q: And the mass density (333.15 K, 90000 kPa, w1 = 0.2002)?
A: 1031.3 ± 0.7 kg/m3

Q: And the mass density (333.15 K, 90000 kPa, w1 = 0.3)?
A: 1038.1 ± 0.7 kg/m3

Q: And the mass density (333.15 K, 90000 kPa, w1 = 0.4)?
A: 1044.9 ± 0.7 kg/m3

Q: And the viscosity (333.15 K, 100000 kPa, Falling or rolling sphere viscometry, w1 = 0.1)?
A: 0.672 ± 0.021 mPa·s

Q: And the viscosity (333.15 K, 100000 kPa, Falling or rolling sphere viscometry, w1 = 0.2002)?
A: 0.967 ± 0.03 mPa·s

Q: And the viscosity (333.15 K, 100000 kPa, Falling or rolling sphere viscometry, w1 = 0.3)?
A: 1.435 ± 0.044 mPa·s

Q: What about the viscosity (333.15 K, 100000 kPa, Falling or rolling sphere viscometry, w1 = 0.4) of the same molecule?
A: 2.206 ± 0.068 mPa·s

Q: What about the mass density (333.15 K, 100000 kPa, w1 = 0.1) of the same molecule?
A: 1028.5 ± 0.7 kg/m3

Q: What about the mass density (333.15 K, 100000 kPa, w1 = 0.2002) of the same molecule?
A: 1034.7 ± 0.7 kg/m3

Q: And the mass density (333.15 K, 100000 kPa, w1 = 0.3)?
A: 1041.6 ± 0.7 kg/m3

Q: And the mass density (333.15 K, 100000 kPa, w1 = 0.4)?
A: 1048.2 ± 0.7 kg/m3

Q: What about the mass density (333.15 K, 110000 kPa, w1 = 0.1) of the same molecule?
A: 1031.9 ± 0.7 kg/m3

Q: What about the mass density (333.15 K, 110000 kPa, w1 = 0.2002) of the same molecule?
A: 1038 ± 0.7 kg/m3

Q: And the mass density (333.15 K, 110000 kPa, w1 = 0.3)?
A: 1044.6 ± 0.7 kg/m3

Q: What about the mass density (333.15 K, 110000 kPa, w1 = 0.4) of the same molecule?
A: 1051.3 ± 0.7 kg/m3

Q: What about the viscosity (333.15 K, 120000 kPa, Falling or rolling sphere viscometry, w1 = 0.1) of the same molecule?
A: 0.68 ± 0.021 mPa·s

Q: And the viscosity (333.15 K, 120000 kPa, Falling or rolling sphere viscometry, w1 = 0.2002)?
A: 0.982 ± 0.03 mPa·s

Q: What about the viscosity (333.15 K, 120000 kPa, Falling or rolling sphere viscometry, w1 = 0.3) of the same molecule?
A: 1.468 ± 0.045 mPa·s

Q: And the viscosity (333.15 K, 120000 kPa, Falling or rolling sphere viscometry, w1 = 0.4)?
A: 2.28 ± 0.07 mPa·s

Q: What about the mass density (333.15 K, 120000 kPa, w1 = 0.1) of the same molecule?
A: 1035.4 ± 0.7 kg/m3

Q: What about the mass density (333.15 K, 120000 kPa, w1 = 0.2002) of the same molecule?
A: 1041.4 ± 0.7 kg/m3

Q: And the mass density (333.15 K, 120000 kPa, w1 = 0.3)?
A: 1047.9 ± 0.7 kg/m3

Q: And the mass density (333.15 K, 120000 kPa, w1 = 0.4)?
A: 1054.5 ± 0.8 kg/m3

Q: What about the mass density (333.15 K, 130000 kPa, w1 = 0.1) of the same molecule?
A: 1038.7 ± 0.7 kg/m3

Q: What about the mass density (333.15 K, 130000 kPa, w1 = 0.2002) of the same molecule?
A: 1044.5 ± 0.7 kg/m3

Q: What about the mass density (333.15 K, 130000 kPa, w1 = 0.3) of the same molecule?
A: 1051 ± 0.8 kg/m3

Q: And the mass density (333.15 K, 130000 kPa, w1 = 0.4)?
A: 1057.5 ± 0.8 kg/m3

Q: What about the mass density (333.15 K, 140000 kPa, w1 = 0.1) of the same molecule?
A: 1042 ± 0.7 kg/m3

Q: What about the mass density (333.15 K, 140000 kPa, w1 = 0.2002) of the same molecule?
A: 1047.7 ± 0.8 kg/m3

Q: What about the mass density (333.15 K, 140000 kPa, w1 = 0.3) of the same molecule?
A: 1054.2 ± 0.8 kg/m3

Q: And the mass density (333.15 K, 140000 kPa, w1 = 0.4)?
A: 1060.6 ± 0.8 kg/m3

Q: And the viscosity (353.15 K, 93 kPa, Concentric cylinders viscometry, w1 = 0.2)?
A: 0.6205 ± 0.013 mPa·s

Q: What about the viscosity (353.15 K, 93 kPa, Concentric cylinders viscometry, w1 = 0.3) of the same molecule?
A: 0.8505 ± 0.018 mPa·s

Q: And the viscosity (353.15 K, 93 kPa, Concentric cylinders viscometry, w1 = 0.4)?
A: 1.186 ± 0.025 mPa·s

Q: And the viscosity (353.15 K, 100 kPa, Falling or rolling sphere viscometry, w1 = 0.2)?
A: 0.617 ± 0.019 mPa·s

Q: And the viscosity (353.15 K, 100 kPa, Falling or rolling sphere viscometry, w1 = 0.2002)?
A: 0.617 ± 0.019 mPa·s

Q: And the viscosity (353.15 K, 100 kPa, Falling or rolling sphere viscometry, w1 = 0.3)?
A: 0.854 ± 0.026 mPa·s

Q: And the viscosity (353.15 K, 100 kPa, Falling or rolling sphere viscometry, w1 = 0.4)?
A: 1.181 ± 0.036 mPa·s

Q: And the mass density (353.15 K, 100 kPa, w1 = 0.1)?
A: 978.6 ± 0.7 kg/m3

Q: What about the mass density (353.15 K, 100 kPa, w1 = 0.2002) of the same molecule?
A: 985.3 ± 0.7 kg/m3

Q: And the mass density (353.15 K, 100 kPa, w1 = 0.3)?
A: 992 ± 0.7 kg/m3

Q: What about the mass density (353.15 K, 100 kPa, w1 = 0.4) of the same molecule?
A: 998.1 ± 0.7 kg/m3

Q: What about the mass density (353.15 K, 500 kPa, w1 = 0.1) of the same molecule?
A: 978.7 ± 0.7 kg/m3

Q: What about the mass density (353.15 K, 500 kPa, w1 = 0.2002) of the same molecule?
A: 985.3 ± 0.7 kg/m3

Q: And the mass density (353.15 K, 500 kPa, w1 = 0.3)?
A: 992 ± 0.7 kg/m3

Q: And the mass density (353.15 K, 500 kPa, w1 = 0.4)?
A: 998.2 ± 0.7 kg/m3

Q: And the mass density (353.15 K, 1000 kPa, w1 = 0.1)?
A: 978.9 ± 0.7 kg/m3

Q: And the mass density (353.15 K, 1000 kPa, w1 = 0.2002)?
A: 985.5 ± 0.7 kg/m3

Q: And the mass density (353.15 K, 1000 kPa, w1 = 0.3)?
A: 992.2 ± 0.7 kg/m3

Q: What about the mass density (353.15 K, 1000 kPa, w1 = 0.4) of the same molecule?
A: 998.4 ± 0.7 kg/m3

Q: What about the mass density (353.15 K, 2000 kPa, w1 = 0.1) of the same molecule?
A: 979.3 ± 0.7 kg/m3

Q: And the mass density (353.15 K, 2000 kPa, w1 = 0.2002)?
A: 985.9 ± 0.7 kg/m3

Q: What about the mass density (353.15 K, 2000 kPa, w1 = 0.3) of the same molecule?
A: 992.7 ± 0.7 kg/m3

Q: What about the mass density (353.15 K, 2000 kPa, w1 = 0.4) of the same molecule?
A: 998.8 ± 0.7 kg/m3

Q: What about the viscosity (353.15 K, 5000 kPa, Falling or rolling sphere viscometry, w1 = 0.2002) of the same molecule?
A: 0.62 ± 0.019 mPa·s

Q: What about the viscosity (353.15 K, 5000 kPa, Falling or rolling sphere viscometry, w1 = 0.3) of the same molecule?
A: 0.862 ± 0.027 mPa·s

Q: What about the viscosity (353.15 K, 5000 kPa, Falling or rolling sphere viscometry, w1 = 0.4) of the same molecule?
A: 1.193 ± 0.037 mPa·s

Q: What about the mass density (353.15 K, 5000 kPa, w1 = 0.1) of the same molecule?
A: 980.6 ± 0.7 kg/m3

Q: What about the mass density (353.15 K, 5000 kPa, w1 = 0.2002) of the same molecule?
A: 987.2 ± 0.7 kg/m3

Q: And the mass density (353.15 K, 5000 kPa, w1 = 0.3)?
A: 993.9 ± 0.7 kg/m3

Q: And the mass density (353.15 K, 5000 kPa, w1 = 0.4)?
A: 1000.1 ± 0.7 kg/m3

Q: What about the viscosity (353.15 K, 10000 kPa, Falling or rolling sphere viscometry, w1 = 0.2002) of the same molecule?
A: 0.625 ± 0.019 mPa·s

Q: What about the viscosity (353.15 K, 10000 kPa, Falling or rolling sphere viscometry, w1 = 0.3) of the same molecule?
A: 0.869 ± 0.027 mPa·s

Q: What about the viscosity (353.15 K, 10000 kPa, Falling or rolling sphere viscometry, w1 = 0.4) of the same molecule?
A: 1.204 ± 0.037 mPa·s

Q: What about the mass density (353.15 K, 10000 kPa, w1 = 0.1) of the same molecule?
A: 982.8 ± 0.7 kg/m3
